From PMC9518286, “Design, synthesis, biological evaluation and molecular docking study of 2,4-diarylimidazoles and 2,4-bis(benzyloxy)-5-arylpyrimidines as novel HSP90 N-terminal inhibitors” (Journal of Enzyme Inhibition and Medicinal Chemistry, 2022)

Tests used:
HSP90α [1] = molecular target: T1, HSP90α (Homo sapiens, UniProt P07900); assay: biochemical; parameters: fluorescence polarisation competition with FITC-labelled geldanamycin on HSP90α N-terminal domain (BPS kit 50293); settings: read-out: FP IC50
T1 construct: gene HSP90AA1; N-terminal domain
Experimental: The binding affinity for HSP90α was evaluated using a commercially available Hsp90α N-terminal domain assay kit (Catalogue: #50293, BPS Bioscience, CA, USA). According to the manufacturer’s instructions, 5x HSP90 assay buffer (5 μL), 40 mM dithiothreitol (5 μL), 2 mg/mL BSA (5 μL), and H2O (40 μL) were sequentially added to each well. After the addition of diluted FITC-labelled geldanamycin solution (100 nM, 5 μL), compounds at different concentrations (10 μM, 1.0 μM, 0.1 μM, 0.01 μM) were added. The reaction was initiated by the addition of 20 μL of Hsp90α (17 ng/μL). After 2 h of incubation with slow shaking at room temperature, the fluorescent polarisation was measured using Synergy H1 (BioTek Instruments, Inc.). The excitation and emission wavelengths were 485 nm and 530 nm, respectively. IC50 values were calculated based on the signal changes in the FP competition assay. The experiments were performed in triplicate. To further verify the binding of the synthesised compounds to the HSP90 N-terminus, the binding affinity of five typical compounds (16j, 16l, 16m, 22k, and 22l) was evaluated using an FP assay. The addition of compounds with HSP90 inhibitory capacity into the assay would compete with the fluorescence probe for binding into HSP90, resulting in a decrease in FP in comparison with the probe alone.

HSP90α [2] = molecular target: T1, HSP90α; assay: fluorescence polarisation competition with FITC-geldanamycin (BPS kit #[…]); format: binding

Compound | IC50 (HSP90α [1]) [µM] | IC50 (HSP90α [2]) [µM]
Cc1ccc(-c2cn(Cc3ccccc3)c(-c3ccc(Cl)cc3)n2)cc1 [16j, 1-Benzyl-2–(4-chlorophenyl)-4-(p-tolyl)-1H-imidazole] | 0.61 ± 0.03 | 
Clc1ccc(-c2cn(Cc3ccccc3)c(-c3ccc(Cl)cc3)n2)cc1 [16l, 1-Benzyl-2,4-bis(4-chlorophenyl)-1H-imidazole] | 0.57 ± 0.06 | 
Clc1ccc(-c2nc(-c3cccc(Cl)c3)cn2Cc2ccccc2)cc1 [16m, 1-Benzyl-4–(3-chlorophenyl)-2–(4-chlorophenyl)-1H-imidazole] | 0.62 ± 0.11 | 

Results, then the compound that gave them:

IC50 (HSP90α [1]) [µM] | IC50 (HSP90α [2]) [µM] | Compound
 | 0.21 ± 0.03 | Oc1ccc(-c2cnc(OCc3ccccc3)nc2OCc2ccccc2)cc1 [22k, 4–(2,4-Bis(benzyloxy)pyrimidin-5-yl)phenol]
0.58 ± 0.11 |  | Oc1cccc(-c2cnc(OCc3ccccc3)nc2OCc2ccccc2)c1 [22l, 3–(2,4-Bis(benzyloxy)pyrimidin-5-yl)phenol]
